Test results: article PMC4827027, “Fungal naphtho-γ-pyrones: Potent antibiotics for drug-resistant microbial pathogens” (Scientific Reports, 2016)
Converted amounts (≈) assume the structure as drawn.

Tests used:
E. coli ATCC 25922 = assay: Broth microdilution MIC, E. coli ATCC 25922; conditions: for MIC: Escherichia coli, ATCC25922, 24 h, read-out: Minimum inhibitory concentrations, E. coli ATCC 25922
[1] = tested on: P. aeruginosa (ATCC 27853); assay: Broth microdilution MIC, P. aeruginosa ATCC 27853; conditions: Pseudomonas aeruginosa, ATCC27853, 24 h, read-out: Minimum inhibitory concentrations, P. aeruginosa ATCC 27853
[2] = tested on: K. pneumoniae (ATCC 700603); assay: Broth microdilution MIC, K. pneumoniae ATCC 700603; conditions: for MIC: Klebsiella pneumoniae, ATCC700603, 24 h, read-out: Minimum inhibitory concentrations, K. pneumoniae ATCC 700603
[3] = tested on: ESBL-producing E. coli (ATCC 35218); assay: Broth microdilution MIC, ESBL-producing E. coli ATCC 35218; conditions: Escherichia coli, ATCC35218, 24 h, read-out: Minimum inhibitory concentrations, E. coli ATCC 35218
[4] = tested on: MRSA (S. aureus ATCC 43300); assay: Broth microdilution MIC, MRSA ATCC 43300; conditions: for MIC: Staphylococcus aureus, ATCC43300|MRSA, 24 h, read-out: Minimum inhibitory concentrations, S. aureus ATCC 43300
E. faecalis (ATCC 29212) = assay: Broth microdilution MIC, E. faecalis ATCC 29212; conditions: Enterococcus faecalis, ATCC29212, 24 h, read-out: Minimum inhibitory concentrations, E. faecalis ATCC 29212
E. coli FabI [5] = biological target: T1, E. coli FabI (Escherichia coli, UniProt P0AEK4); assay: Microscale thermophoresis (MST) binding to FabI; conditions: for Dissociation constant with E. coli FabI, Kd: MST, means ± SD for three experiments, n.i. is no clear binding detected in the MST measurement
E. coli FabI [6] = biological target: T1, E. coli FabI; assay: FabI inhibition IC50 assay (crotonoyl-CoA/NADH); conditions: for Inhibitory activities against E. coli FabI, IC50: 50 μM crotonoyl-CoA, 100 μM NADH, n.i. is no inhibition detected (IC50 > 1 mM)

T1 sequence (P0AEK4 whole entry): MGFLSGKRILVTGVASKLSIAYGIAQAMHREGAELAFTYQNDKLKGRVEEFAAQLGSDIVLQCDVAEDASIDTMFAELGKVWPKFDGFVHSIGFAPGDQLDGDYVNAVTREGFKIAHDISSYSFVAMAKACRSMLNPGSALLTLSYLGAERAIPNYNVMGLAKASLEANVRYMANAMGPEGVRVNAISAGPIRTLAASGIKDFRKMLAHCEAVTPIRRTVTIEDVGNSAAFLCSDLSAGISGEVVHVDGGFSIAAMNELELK

Compound	MIC (E. coli ATCC 25922) [mg/L]	MIC [1] [mg/L]	MIC [2] [mg/L]	MIC [3] [mg/L]	MIC [4] [mg/L]	MIC (E. faecalis (ATCC 29212)) [mg/L]	Dissociation constant with E. coli FabI, Kd (E. coli FabI [5])	IC50 (E. coli FabI [6]) [µM]	Antibacterial activity against S. aureus (in words) [4]	Antibacterial activity against E. coli (in words) (E. coli ATCC 25922)	Kd (E. coli FabI [5]) [µM]	Inhibition of K. pneumonia (in words) [2]	Inhibitory activities against E. coli FabI, IC50 (E. coli FabI [6])
NCC[C@H](O)C(=O)N[C@@H]1C[C@H](N)[C@@H](O[C@H]2O[C@H](CN)[C@@H](O)[C@H](O)[C@H]2O)[C@H](O)[C@H]1O[C@H]1O[C@H](CO)[C@@H](O)[C@H](N)[C@H]1O [Amikacin, reference compound]	2.13 (≈ 3.64 µM)	2.13 (≈ 3.64 µM)	8.52 (≈ 14.5 µM)	4.26 (≈ 7.27 µM)									
CO/N=C(\C(=O)N[C@@H]1C(=O)N2C(C(=O)O)=C(CSc3nc(=O)c(=O)[nH]n3C)CS[C@H]12)c1csc(N)n1 [Ceftriaxone, reference compound]	2.13 (≈ 3.84 µM)	2.13 (≈ 3.84 µM)	2.13 (≈ 3.84 µM)	8.52 (≈ 15.4 µM)									
COc1cc(OC)c2c(c1)cc(O)c1c(=O)cc(C)oc12 [Compound 1, Flavasperone]	8.52 (≈ 29.8 µM)	68.2 (≈ 238 µM)	≥ 100	8.52 (≈ 29.8 µM)	≥ 100	68.2 (≈ 238 µM)	^bn.i.	110					
COc1cc(OC)c2c(O)c3c(=O)cc(C)oc3c(-c3c(OC)cc4cc(O)c5c(=O)cc(C)oc5c4c3OC)c2c1 [Compound 2, Fonsecinone A]	2.13 (≈ 3.73 µM)	17 (≈ 29.9 µM)	≥ 100	4.26 (≈ 7.47 µM)	34.1 (≈ 59.7 µM)	4.26 (≈ 7.47 µM)		2.7	moderate antibacterial activities	moderate antibacterial activities	215 ± 28.8	no obvious inhibition	
COc1cc(OC)c2c(O)c3c(c(-c4c(OC)cc5cc(O)c6c(=O)cc(C)oc6c5c4OC)c2c1)OC(C)(O)CC3=O (centres unmarked) [Compound 3, Fonsecinone C]	2.13 (≈ 3.62 µM)	17 (≈ 29 µM)	≥ 100	4.26 (≈ 7.24 µM)	34.1 (≈ 57.9 µM)	17 (≈ 29 µM)		3	moderate antibacterial activities	moderate antibacterial activities	270 ± 9.1	no obvious inhibition	
COc1cc(OC)c2c(O)c3c(c(-c4c(OC)cc5cc6oc(C)cc(=O)c6c(O)c5c4OC)c2c1)OC(C)(O)CC3=O (centres unmarked) [Compound 4, Fonsecinone B]	17 (≈ 29 µM)	≥ 100	34.1 (≈ 57.9 µM)	17 (≈ 29 µM)	≥ 100	≥ 100	^bn.i.	111					
COc1cc(OC)c2c(O)c3c(=O)cc(C)oc3cc2c1 [Compound 5, Rubrofusarin B]	8.52 (≈ 29.8 µM)	≥ 100	68.2 (≈ 238 µM)	17 (≈ 59.5 µM)	≥ 100	68.2 (≈ 238 µM)	^bn.i.						^cn.i.
COc1cc(OC)c2c(O)c3c(=O)cc(C)oc3c(-c3c(OC)cc4cc5oc(C)cc(=O)c5c(O)c4c3OC)c2c1 [Compound 6, Aurasperone A]	4.26 (≈ 7.47 µM)	34.1 (≈ 59.7 µM)	≥ 100	8.52 (≈ 14.9 µM)	34.1 (≈ 59.7 µM)	17 (≈ 29.9 µM)		52.1			289 ± 31.1		
COc1cc(OC)c2c(O)c3c(=O)cc(C)oc3c(-c3c(OC)cc4cc5c(c(O)c4c3OC)C(=O)CC(C)(O)O5)c2c1 (centres unmarked) [Compound 7, Aurasperone E]	8.52 (≈ 14.5 µM)	34.1 (≈ 57.9 µM)	≥ 100	8.52 (≈ 14.5 µM)	68.2 (≈ 116 µM)	17 (≈ 29 µM)		71.8			329 ± 29.7		
COc1cc(OC)c2c(c1)c(-c1c(OC)cc3cc4oc(C)cc(=O)c4c(O)c3c1OC)c(O)c1c(=O)cc(C)oc12 [Compound 8, Asperpyrone C]	17 (≈ 29.9 µM)	≥ 100	68.2 (≈ 119 µM)	17 (≈ 29.9 µM)	≥ 100	≥ 100	^bn.i.						^cn.i.
CN[C@H](CC(C)C)C(=O)N[C@H]1C(=O)N[C@@H](CC(N)=O)C(=O)N[C@H]2C(=O)N[C@H]3C(=O)N[C@H](C(=O)N[C@H](C(=O)O)c4cc(O)cc(O)c4-c4cc3ccc4O)[C@H](O)c3ccc(c(Cl)c3)Oc3cc2cc(c3O[C@@H]2O[C@H](CO)[C@@H](O)[C@H](O)[C@H]2O[C@H]2C[C@](C)(N)[C@H](O)[C@H](C)O2)Oc2ccc(cc2Cl)[C@H]1O [Vancomycin, reference compound]					0.53 (≈ 0.366 µM)	0.53 (≈ 0.366 µM)							
